The source of these data is patent US20200079757A1, “COMPOUNDS FOR THE TREATMENT OF RESPIRATORY DISEASES” (THE UNIVERSITY OF MELBOURNE, priority 2017, published 2020).

Assay [1] has as its system Bleomycin Model of Pulmonary Fibrosis. The assay is described as follows: Bleomycin model of pulmonary fibrosis: BAL protein, BAL cells, lung gene expression. The note with it: female C57BI/6 mice; for bleomycin-induced BAL cell number / bleomycin-induced BAL protein: day −1 to 3. It counts as in vivo, mouse. The method, then: All animal experiments were carried out in accordance with ethical guidelines from the University of Melbourne Animal Ethics Committee (AEEC #1513736.1). Six- to 8-week old 20-25 g C57BI/6 mice (ARC, Perth, Australia) received treatment with 35 μL of saline or bleomycin (105 mU per mouse) on day 0 through intranasal administration, as previously described (Langenbach et al., (2007). Can J Physiol Pharmacol, 85, 727-738). Acute and chronic bleomycin mouse models were used to assess the effect of SS9-010 on pulmonary fibrosis in vivo. SS9-010 was administered systemically through intraperitoneal injection or locally to the lungs through inhalation of an aerosol generated using an oxygen concentrator connected to a hudson nebuliser operating at 5 L/min for 15 minutes. […] Mice were allowed food and water ad libitum for the duration of all studies. At the end of each study, bronchoalveolar lavage (BAL) was performed from which leukocyte cell types were enumerated and acelluar protein content was determined as previously described (Langenbach, et al., 2007), lungs were dissected and snap frozen. Gene expression were determined from pulverised frozen lung tissue. Total protein content in acellular BAL fluid was assessed using the BioRad protein assay method. BAL cells in BAL fluid were stained with Erythrosin B (EB) and counted manually with the aid of a hemocytometer. Total BAL cell number was calculated by accounting for the return volume of BAL fluid. The effects of inhaled SS9-010 on bleomycin-induced BAL protein leakage, BAL cell recruitment, lung weight, as well as lung fibrogenic gene expression in mouse lungs are shown in FIG. 9. Female C57BI/6 mice received a transnasal dose of bleomycin or saline on day 0. SS9-010 was administered day −1 to day 3 by daily inhalation of aerosol generated by nebulizing from a concentration of 1 mg/mL for a period of 15 min once daily. Bronchoalveolar lavage (BAL) protein and BAL cell number were assessed. Lung fibrogenic gene expression was also assessed on day 3. Data are presented as mean±SEM (n=6). […] The effects of intraperitoneal injection of SS9-010 on bleomycin-induced BAL protein leakage, BAL cell recruitment, and lung fibrogenic gene expression in mouse lungs are shown in FIG. 10. Female C57BI/6 mice were […] administered bleomycin or saline on day 0. SS9-010 (3 or 10 mg/kg/day, ip) was administered from day −1 to 3. […] Lung fibrogenic gene expression was also assessed on day 3. Data are presented as mean±SEM (n=4 sal, n=5 other groups). Systemic SS9-010 (3 or 10 mg/kg/day, ip) had no effect on BAL protein or BAL cell number. Induction of IL-6 was reduced by SS9-010 treatment, whereas arginase-1 was not.

Assay [2] relates to ovalbumin (OVA)-sensitized BALB/c mice. As to the kind of experiment: Airway hyper-responsiveness to methacholine in acute ovalbumin-induced asthma model. The format is in vivo, mouse. The note with it: inhaled, estimated deposited dose 1 μg, day 21 to 28.
Where [3] appears, read: inhaled aerosol 1 mg/mL 15 min once daily.

Structures are written as SMILES.

On to `CNc1nccc(-c2c(-c3ccc(F)cc3)ncn2C2CCCCC2)n1` [SS9-010, 4-(1-Cyclohexyl-4-(4-fluorophenyl)-1H-imidazol-5-yl)-N-methylpyrimidin-2-amine], for which the “induction of IL-6 (lung gene expression)” value in assay [1] (3 or 10 mg/kg/day ip, day 3) is given as “reduced”. In assay [1] (3 or 10 mg/kg/day ip), the “bleomycin-induced BAL cell number” value is “no effect” and the “bleomycin-induced BAL protein” value is listed as “no effect”. Besides, in assay [1] (setting [3]), the “bleomycin-induced BAL cell number” value is “modest suppression” and the “bleomycin-induced BAL protein” value is listed as “showed an effect”. In addition, the “lung fibrogenic gene expression” value in assay [1] (inhaled aerosol 1 mg/mL 15 min once daily, day −1 to 3, assessed day 3) is on record as “showed an effect”. In assay [2], the “OVA-induced increase in central airway resistance (Rn) to methacholine” value is reported as “attenuated”; the “OVA-induced increase in elastance to methacholine” value was “attenuated”; the “compliance changes, OVA/SS9-010 compared to OVA alone” value was “No significant difference”.
